Patent US7459450B2, “Neuropeptide receptor modulators” (Schering Corporation, priority 2004, dated 2008)

The compounds below were run against T1, Human NPY Y1 receptors (Homo sapiens, UniProt P25929) (assay: NPY Receptor Binding Assay). Details: not given.
T1 construct: expressed in transfected cells; host or cells: CHO cells (membrane protein)
T1 sequence (P25929 1-384): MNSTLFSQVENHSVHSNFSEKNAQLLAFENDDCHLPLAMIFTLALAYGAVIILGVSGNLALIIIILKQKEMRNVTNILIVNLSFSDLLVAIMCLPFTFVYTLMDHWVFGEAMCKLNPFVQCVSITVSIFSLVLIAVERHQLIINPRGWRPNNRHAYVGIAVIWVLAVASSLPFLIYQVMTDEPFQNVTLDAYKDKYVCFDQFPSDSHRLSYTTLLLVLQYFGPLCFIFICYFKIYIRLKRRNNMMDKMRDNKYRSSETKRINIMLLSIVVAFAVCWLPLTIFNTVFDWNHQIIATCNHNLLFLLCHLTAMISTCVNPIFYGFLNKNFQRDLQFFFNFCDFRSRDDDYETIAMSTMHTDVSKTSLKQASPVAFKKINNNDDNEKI
Compound O=C1S/C(=N\c2ccc(CCNc3nc4ccc(F)cc4s3)cc2)N2CCC[C@@H]12 [Example 375] has a Ki greater than 10 µM.
O=C1CN/C(=N\c2cccc(CCNc3nc4ccccc4s3)c2)S1 [Example 376] showed a Ki greater than 10 µM.
Compound O=C1CN/C(=N/c2ccc(CCNc3nc4ccccc4s3)cc2)S1 [Example 377] has a Ki greater than 10 µM.
In the case of Cc1ccc2nc(NCCc3ccc(/N=C4/N[C@@H](C(C)C)C(=O)S4)cc3)sc2c1 [Example 378], the Ki is reported as greater than 10 µM.
Compound Cc1ccc2nc(NCCc3ccc(/N=C4\SC(=O)[C@@H]5CCCN45)cc3)sc2c1 [Example 379] has a Ki greater than 10 µM.
In the case of Cc1ccc2nc(NCCc3ccc(/N=C4/N[C@@H](CC(=O)O)C(=O)S4)cc3)sc2c1 [Example 380], the Ki is reported as greater than 10 µM.
Cc1ccc2nc(NCCc3ccc(/N=C4/N[C@@H](C)C(=O)S4)cc3)sc2c1 [Example 381] gave a Ki greater than 10 µM.
O=C1S/C(=N\c2ccc(CCNc3nc4ccc(Cl)cc4s3)cc2)N[C@H]1Cc1ccccc1 [Example 382] showed a Ki greater than 10 µM.
For CC(C)C[C@@H]1N/C(=N/c2ccc(CCNc3nc4ccc(Cl)cc4s3)cc2)SC1=O [Example 383], the Ki was greater than 10 µM.
In the case of CC(C)[C@@H]1N/C(=N/c2ccc(CCNc3nc4ccc(Cl)cc4s3)cc2)SC1=O [Example 384], the Ki is reported as greater than 10 µM.
In the case of O=C1SC(=Nc2ccc(CCNc3nc4ccc(Cl)cc4s3)cc2)N2CCCC12 (stereo not drawn) [Example 385], the Ki is reported as greater than 10 µM.
C[C@@H]1N/C(=N/c2ccc(CCNc3nc4ccc(Cl)cc4s3)cc2)SC1=O [Example 386] showed a Ki greater than 10 µM.
In the case of CS(=O)(=O)c1ccc2nc(NCCc3ccc(/N=C4/N[C@@H](Cc5ccccc5)C(=O)S4)cc3)sc2c1 [Example 387], the Ki is reported as greater than 10 µM.
For CSCC[C@@H]1N/C(=N/c2ccc(CCNc3nc4ccc(S(C)(=O)=O)cc4s3)cc2)SC1=O [Example 388], the Ki was greater than 10 µM.
CC(C)C[C@@H]1N/C(=N/c2ccc(CCNc3nc4ccc(S(C)(=O)=O)cc4s3)cc2)SC1=O [Example 389] showed a Ki greater than 10 µM.
O=C1S/C(=N\c2ccc(CCNc3nc4cc(Cl)c(Cl)cc4s3)cc2)N2CCC[C@@H]12 [Example 390] showed a Ki greater than 10 µM.
O=C1CN/C(=N/c2ccc(CCNc3nc4cc(Cl)c(Cl)cc4s3)cc2)S1 [Example 391] showed a Ki greater than 10 µM.
Compound O=C(O)C[C@@H]1N/C(=N/c2ccc(CCNc3nc4cc(Cl)c(Cl)cc4s3)cc2)SC1=O [Example 392] has a Ki greater than 10 µM.
Compound C[C@@H]1N/C(=N/c2ccc(CCNc3nc4cc(Cl)c(Cl)cc4s3)cc2)SC1=O [Example 393] has a Ki greater than 10 µM.
O=C1S/C(=N\c2ccc(CCNc3nc4ccccc4s3)cc2)N[C@H]1Cc1ccccc1 [Example 394] was tested, and the Ki was greater than 10 µM.
CSCC[C@@H]1N/C(=N/c2ccc(CCNc3nc4ccccc4s3)cc2)SC1=O [Example 395] was tested, and the Ki was greater than 10 µM.
Compound CC(C)C[C@@H]1N/C(=N/c2ccc(CCNc3nc4ccccc4s3)cc2)SC1=O [Example 396] has a Ki greater than 10 µM.
In the case of CC(C)[C@@H]1N/C(=N/c2ccc(CCNc3nc4ccccc4s3)cc2)SC1=O [Example 397], the Ki is reported as greater than 10 µM.
For O=C1S/C(=N\c2ccc(CCNc3nc4ccccc4s3)cc2)N2CCC[C@@H]12 [Example 398], the Ki was greater than 10 µM.
Compound O=C(O)C[C@@H]1N/C(=N/c2ccc(CCNc3nc4ccccc4s3)cc2)SC1=O [Example 399] has a Ki greater than 10 µM.
With C[C@@H]1N/C(=N/c2ccc(CCNc3nc4ccccc4s3)cc2)SC1=O [Example 400] the Ki was greater than 10 µM.
With COc1cccc2sc(NCCc3ccc(/N=C4/N[C@@H](Cc5ccccc5)C(=O)S4)cc3)nc12 [Example 401] the Ki was greater than 10 µM.
For O=C(O)C[C@@H]1N/C(=N/c2ccc(CCNc3nc4ccc(F)cc4s3)cc2)SC1=O [Example 402], the Ki was greater than 10 µM.
Compound C[C@@H]1N/C(=N/c2ccc(CCNc3nc4ccc(F)cc4s3)cc2)SC1=O [Example 403] has a Ki greater than 10 µM.
Compound CC(C)C1NC(=Nc2ccccc2CCNc2nc3ccccc3s2)SC1=O (stereo not drawn) [Example 404] has a Ki greater than 10 µM.
O=C1S/C(=N/c2ccccc2CCNc2nc3ccccc3s2)N2CCC[C@@H]12 [Example 405] showed a Ki greater than 10 µM.
In the case of O=C1S/C(=N/c2cccc(CCNc3nc4ccccc4s3)c2)N[C@H]1Cc1ccccc1 [Example 406], the Ki is reported as greater than 10 µM.
In the case of CC(C)[C@@H]1N/C(=N\c2cccc(CCNc3nc4ccccc4s3)c2)SC1=O [Example 407], the Ki is reported as greater than 10 µM.
O=C1S/C(=N/c2cccc(CCNc3nc4ccccc4s3)c2)N2CCC[C@@H]12 [Example 408] gave a Ki greater than 10 µM.
O=C(O)C[C@@H]1N/C(=N\c2cccc(CCNc3nc4ccccc4s3)c2)SC1=O [Example 409] was tested, and the Ki was greater than 10 µM.
In the case of O=C1S/C(=N/c2ccccc2CCNc2nc3ccccc3s2)N[C@H]1Cc1ccccc1 [Example 410], the Ki is reported as greater than 10 µM.
In the case of CC(C)C[C@@H]1N/C(=N\c2ccccc2CCNc2nc3ccccc3s2)SC1=O [Example 411], the Ki is reported as greater than 10 µM.
For O=C1CN/C(=N\c2ccccc2CCNc2nc3ccccc3s2)S1 [Example 412], the Ki was greater than 10 µM.
O=C(O)C[C@@H]1N/C(=N\c2ccccc2CCNc2nc3ccccc3s2)SC1=O [Example 413] showed a Ki greater than 10 µM.
CSCC[C@@H]1N/C(=N/c2ccc(CCNc3nc4ccc([N+](=O)[O-])cc4s3)cc2)SC1=O [Example 414] gave a Ki greater than 10 µM.

Same assay, conditions: Procedure D compound, rated A/B/C
For COC1CN=C(Nc2ccc(CCNc3nc4ccccc4s3)cc2)S1 (stereo not drawn) [compound 61], the Ki was 1 to 10 µM.

Same assay, conditions: Procedure G compounds, rated A/B/C
Cc1csc(Nc2ccc(CCNc3nc4ccccc4s3)cc2)n1 [Example 415] was tested, and the Ki was greater than 10 µM.
c1ccc2sc(NCCc3ccc(Nc4nccs4)cc3)nc2c1 [Example 416] gave a Ki greater than 10 µM.
Cc1ccc(-c2csc(Nc3ccc(CCNc4nc5ccccc5s4)cc3)n2)cc1 [Example 417] showed a Ki greater than 10 µM.
With CNC(=O)c1sc(Nc2ccc(CCNc3nc4ccccc4s3)cc2)nc1C [Example 418] the Ki was greater than 10 µM.
For c1ccc(-c2ccc(-c3csc(Nc4ccc(CCNc5nc6ccccc6s5)cc4)n3)cc2)cc1 [Example 419], the Ki was greater than 10 µM.
With Fc1ccc(-c2csc(Nc3ccc(CCNc4nc5ccccc5s4)cc3)n2)cc1 [Example 420] the Ki was greater than 10 µM.
With c1ccc(-c2nc(Nc3ccc(CCNc4nc5ccccc5s4)cc3)sc2-c2ccccc2)cc1 [Example 421] the Ki was greater than 10 µM.
c1ccc2cc(-c3csc(Nc4ccc(CCNc5nc6ccccc6s5)cc4)n3)ccc2c1 [Example 422] gave a Ki greater than 10 µM.
With c1ccc(-c2csc(Nc3ccc(CCNc4nc5ccccc5s4)cc3)n2)cc1 [Example 423] the Ki was greater than 10 µM.
c1ccc2sc(NCCc3ccc(Nc4nc(C56C[C@H]7C[C@@H](C5)C[C@@H](C6)C7)cs4)cc3)nc2c1 [Example 424] was tested, and the Ki was greater than 10 µM.
COc1ccccc1-c1csc(Nc2ccc(CCNc3nc4ccccc4s3)cc2)n1 [Example 425] was tested, and the Ki was greater than 10 µM.
In the case of COc1ccc(-c2csc(Nc3ccc(CCNc4nc5ccccc5s4)cc3)n2)c(OC)c1 [Example 426], the Ki is reported as greater than 10 µM.
In the case of CCOC(=O)c1sc(Nc2ccc(CCNc3nc4ccccc4s3)cc2)nc1C [Example 427], the Ki is reported as greater than 10 µM.
For Cc1nc(Nc2ccc(CCNc3nc4ccccc4s3)cc2)sc1C [Example 428], the Ki was greater than 10 µM.
CC(=O)c1sc(Nc2ccc(CCNc3nc4ccccc4s3)cc2)nc1C [Example 429] gave a Ki greater than 10 µM.
CCc1csc(Nc2ccc(CCNc3nc4ccccc4s3)cc2)n1 [Example 430] showed a Ki greater than 10 µM.
Work on COC(=O)Cc1csc(Nc2ccc(CCNc3nc4ccccc4s3)cc2)n1 [Example 431] yielded a Ki greater than 10 µM.
CCOC(=O)c1sc(Nc2ccc(CCNc3nc4ccccc4s3)cc2)nc1C(F)(F)F [Example 432] showed a Ki greater than 10 µM.
CC(C)(C)c1csc(Nc2ccc(CCNc3nc4ccccc4s3)cc2)n1 [Example 433] was tested, and the Ki was greater than 10 µM.
With CCOC(=O)CC(C)(C)c1csc(Nc2ccc(CCNc3nc4ccccc4s3)cc2)n1 [Example 434] the Ki was greater than 10 µM.
O=C(O)c1csc(Nc2ccc(CCNc3nc4ccccc4s3)cc2)n1 [Example 435] gave a Ki greater than 10 µM.
With COc1ccc(-c2csc(Nc3ccc(CCNc4nc5ccccc5s4)cc3)n2)cc1 [Example 436] the Ki was greater than 10 µM.
For Cc1nc(Nc2ccc(CCNc3nc4ccccc4s3)cc2)sc1C(=O)N(C)C [Example 437], the Ki was greater than 10 µM.

Same assay, conditions: Procedure H compounds, rated A/B/C
Work on O=C1CSC(Nc2ccc(CCNc3nc4ccccc4s3)cc2)=N1 [Example 439] yielded a Ki greater than 10 µM.
Work on CC(O)CC1SC(Nc2ccc(CCNc3nc4ccccc4s3)cc2)=NC1=O (stereo not drawn) [Example 440] yielded a Ki greater than 10 µM.
O=C1N=C(Nc2ccc(CCNc3nc4ccccc4s3)cc2)SC1CCO (stereo not drawn) [Example 441] gave a Ki greater than 10 µM.
In the case of CCCCC1SC(Nc2ccc(CCNc3nc4ccccc4s3)cc2)=NC1=O (stereo not drawn) [Example 442], the Ki is reported as greater than 10 µM.
For CCC1SC(Nc2ccc(CCNc3nc4ccccc4s3)cc2)=NC1=O (stereo not drawn) [Example 443], the Ki was greater than 10 µM.
O=C1N=C(Nc2ccc(CCNc3nc4ccccc4s3)cc2)SC1c1ccccc1 (stereo not drawn) [Example 444] showed a Ki greater than 10 µM.
O=C1N=C(Nc2ccc(CCNc3nc4ccccc4s3)cc2)SC1c1ccccc1O (stereo not drawn) [Example 445] showed a Ki greater than 10 µM.
Compound CCCC1SC(Nc2ccc(CCNc3nc4ccccc4s3)cc2)=NC1=O (stereo not drawn) [Example 446] has a Ki greater than 10 µM.
CCCCCC1SC(Nc2ccc(CCNc3nc4ccccc4s3)cc2)=NC1=O (stereo not drawn) [Example 447] gave a Ki greater than 10 µM.

Same assay, conditions: Procedure I compounds, column head blank, rated A/B/C
With c1ccc(C2CCCCC(Nc3ccc(CCNc4nc5ccccc5s4)cc3)=N2)cc1 (stereo not drawn) [Example 448] the Ki was 1 to 10 µM.
In the case of c1ccc(C2CCCC(Nc3ccc(CCNc4nc5ccccc5s4)cc3)=N2)cc1 (stereo not drawn) [Example 449], the Ki is reported as 1 to 10 µM.
